In patent publication US11964953B2, “Substituted aminothiazoles as DGKzeta inhibitors for immune activation” (Bayer Aktiengesellschaft, priority 2020, dated 2024):

Biological target: human DGKζ (Homo sapiens (Human), UniProt Q13574)
Assay: Human DGKζ kinase activity inhibition assay (ADP-Glo)
Format: biochemical
Conditions: in vitro human DGKζ kinase activity inhibition assay; read-out: IC50
How it was run: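 Enzyme was C-terminally FLAG-tagged full-length recombinant human DGKζ from baculovirus-infected insect cells. Substrate preparation used octyl-β-D-glucopyranoside in 50 mM MOPS pH 7.4 with sonication; ADP generated was quantified by ADP-Glo luminescence as activity measure.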

Sequence of human DGKζ (Q13574 other isoform, or with tags, fused parts or gaps): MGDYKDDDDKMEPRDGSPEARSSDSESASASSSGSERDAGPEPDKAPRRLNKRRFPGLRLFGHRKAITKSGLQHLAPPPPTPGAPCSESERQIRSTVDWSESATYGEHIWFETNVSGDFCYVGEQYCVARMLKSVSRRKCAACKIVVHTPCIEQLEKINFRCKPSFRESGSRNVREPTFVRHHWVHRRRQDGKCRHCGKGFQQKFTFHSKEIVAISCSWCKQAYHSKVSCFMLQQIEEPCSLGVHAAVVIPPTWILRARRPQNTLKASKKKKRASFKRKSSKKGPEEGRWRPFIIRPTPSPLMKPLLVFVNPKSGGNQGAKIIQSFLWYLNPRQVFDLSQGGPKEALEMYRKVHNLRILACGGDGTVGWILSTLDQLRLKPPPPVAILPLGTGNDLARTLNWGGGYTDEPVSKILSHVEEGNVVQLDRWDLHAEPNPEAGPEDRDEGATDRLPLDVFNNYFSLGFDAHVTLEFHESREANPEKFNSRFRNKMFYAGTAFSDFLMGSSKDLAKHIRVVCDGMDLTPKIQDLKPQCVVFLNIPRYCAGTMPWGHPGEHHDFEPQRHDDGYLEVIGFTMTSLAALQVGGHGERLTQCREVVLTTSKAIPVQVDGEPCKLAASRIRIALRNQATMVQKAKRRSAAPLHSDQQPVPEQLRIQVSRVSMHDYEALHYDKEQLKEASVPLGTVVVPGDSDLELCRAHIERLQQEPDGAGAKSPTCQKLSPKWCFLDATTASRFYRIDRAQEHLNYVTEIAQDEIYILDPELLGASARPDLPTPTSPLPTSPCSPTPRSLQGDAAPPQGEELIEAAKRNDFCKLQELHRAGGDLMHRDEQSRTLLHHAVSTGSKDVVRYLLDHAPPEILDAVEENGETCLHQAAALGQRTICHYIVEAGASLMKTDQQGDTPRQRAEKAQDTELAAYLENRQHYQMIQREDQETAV

| SMILES | IC50 |
| --- | --- |
| CC(C(N)=O)N(c1ccc(OCc2ccccc2)cc1)c1nc(N)c(C(=O)c2ccc(OC(F)F)cc2)s1 (racemic) [Example 182, rac-2-(N-[4-amino-5-[4-(difluoromethoxy)benzoyl]thiazol-2-yl]-4-benzyloxy-anilino)propanamide] | 91 nM |
| CC(C(N)=O)N(c1ccc(Br)cc1)c1nc(N)c(C(=O)c2ccccc2)s1 (racemic) [Example 193, rac-2-(N-(4-amino-5-benzoyl-thiazol-2-yl)-4-bromo-anilino)propanamide] | 35 nM |
| CC(C(N)=O)N(c1ccc(F)cc1)c1nc(N)c(C(=O)c2ccc(OCC(=O)NC3CCCC3)cc2)s1 (racemic) [Example 132, rac-2-(N-[4-amino-5-[4-[2-(cyclopentylamino)-2-oxo-ethoxy]benzoyl]thiazol-2-yl]-4-fluoro-anilino)propanamide] | 93.3 nM |
| COc1ccccc1CNC(=O)COc1ccc(C(=O)c2sc(N(c3ccc(F)cc3)C(C)C(N)=O)nc2N)cc1 (racemic) [Example 94, rac-2-(N-[4-amino-5-[4-[2-[(2-methoxyphenyl)methylamino]-2-oxo-ethoxy]benzoyl]thiazol-2-yl]-4-fluoro-anilino)propanamide] | 25.7 nM |
| CC(C(N)=O)N(c1ccc(OC(F)F)nc1)c1nc(N)c(C(=O)c2ccccc2)s1 (racemic) [Example 229, rac-2-[(4-amino-5-benzoyl-thiazol-2-yl)-[6-(difluoromethoxy)-3-pyridyl]amino]propanamide] | 193 nM |
| CC(C(N)=O)N(c1ccc(F)cc1)c1nc(N)c(C(=O)c2ccc(NC(=O)OCc3ccccc3)cc2)s1 (single isomer, unassigned) [Example 169.2, Benzyl N-[4-[4-amino-2-(N-(2-amino-1-methyl-2-oxo-ethyl)-4-fluoro-anilino)thiazole-5-carbonyl]phenyl]carbamate] | 859 nM |
| CC(C(N)=O)N(c1ccc(F)cc1)c1nc(N)c(C(=O)c2ccc(C(F)(F)F)cc2)s1 (racemic) [Example 42, rac-2-(N-[4-amino-5-[4-(trifluoromethyl)benzoyl]thiazol-2-yl]-4-fluoro-anilino)propanamide] | 11.3 nM |
| CC(C(N)=O)N(c1ccc(F)cc1)c1nc(N)c(C(=O)c2ccc(OC(C)(C)C(N)=O)cc2)s1 (racemic) [Example 155, rac-2-[4-[4-amino-2-(N-(2-amino-1-methyl-2-oxo-ethyl)-4-fluoro-anilino)thiazole-5-carbonyl]phenoxy]-2-methyl-propanamide] | 200 nM |
| CC(C)NC(=O)C(C)(C)Oc1ccc(C(=O)c2sc(N(c3ccc(F)cc3)C(C)C(N)=O)nc2N)cc1 (racemic) [Example 154, rac-2-[4-[4-amino-2-(N-(2-amino-1-methyl-2-oxo-ethyl)-4-fluoro-anilino)thiazole-5-carbonyl]phenoxy]-N-isopropyl-2-methyl-propanamide] | 55.6 nM |
| Cc1ccccc1N(c1nc(N)c(C(=O)c2ccccc2)s1)C(C)C(N)=O (racemic) [Example 77, rac-2-(N-(4-amino-5-benzoyl-thiazol-2-yl)-2-methyl-anilino)propanamide] | 533 nM |
| CC(C(N)=O)N(c1ccc(F)cc1)c1nc(N)c(C(=O)c2ccc(NC(=O)OCc3ccccc3)cc2)s1 (single isomer, unassigned) [Example 169.1, Benzyl N-[4-[4-amino-2-(N-(2-amino-1-methyl-2-oxo-ethyl)-4-fluoro-anilino)thiazole-5-carbonyl]phenyl]carbamate] | 3 nM |
| Cc1ccccc1CNC(=O)COc1ccc(C(=O)c2sc(N(c3ccc(F)cc3)C(C)C(N)=O)nc2N)cc1 (racemic) [Example 84, rac-2-(N-[4-amino-5-[4-[2-(o-tolylmethylamino)-2-oxo-ethoxy]benzoyl]thiazol-2-yl]-4-fluoro-anilino)propanamide] | 24.6 nM |
| CC(C(N)=O)N(c1ccc(F)cc1)c1nc(N)c(C(=O)c2ccc(N(C)C)cc2)s1 (racemic) [Example 180, rac-2-(N-[4-amino-5-[4-(dimethylamino)benzoyl]thiazol-2-yl]-4-fluoro-anilino)propanamide] | 62 nM |
| COc1ccc(C(=O)c2sc(N(c3ccc(F)cc3)C(C)C(N)=O)nc2C)cc1 (racemic) [Example 176, rac-2-(4-fluoro-N-[5-(4-methoxybenzoyl)-4-methyl-thiazol-2-yl]anilino)propanamide] | 91 nM |
| Cc1cc(NC(=O)COc2ccc(C(=O)c3sc(N(c4ccc(F)cc4)C(C)C(N)=O)nc3N)cc2)on1 (racemic) [Example 112, rac-2-(N-(4-amino-5-[4-[2-[(3-methylisoxazol-5-yl)amino]-2-oxo-ethoxy]benzoyl]thiazol-2-yl]-4-fluoro-anilino)propanamide] | 300 nM |
| CC(C(N)=O)N(c1ccc(F)cc1)c1nc(N)c(C(=O)c2ccc(C(F)(F)F)nc2)s1 (single isomer, unassigned) [Example 29.2, 2-(N-[4-amino-5-[6-(trifluoromethyl)pyridine-3-carbonyl]thiazol-2-yl]-4-fluoro-anilino)propanamide] | 46.2 nM |

| SMILES | IC50 |
| --- | --- |
| CC(C(N)=O)N(c1ccc(OC(F)F)nc1)c1nc(N)c(C(=O)c2ccc(OC(F)F)cc2)s1 (racemic) [Example 254, rac-2-[[4-amino-5-[4-(difluoromethoxy)benzoyl]thiazol-2-yl]-[6-(difluoromethoxy)-3-pyridyl]amino]propanamide] | 32 nM |
| CC(C(N)=O)N(c1ccc(F)c(F)c1)c1nc(N)c(C(=O)c2ccncc2)s1 (racemic) [Example 50, rac-2-(N-[4-amino-5-(pyridine-4-carbonyl)thiazol-2-yl]-3,4-difluoro-anilino)propanamide] | 378 nM |
| CC(C(N)=O)N(c1ccc(F)cc1)c1nc(N)c(C(=O)c2ccc(OCC(=O)Nc3ccc(C(N)=O)cc3)cc2)s1 (racemic) [Example 109, rac-4-[[2-[4-[4-amino-2-(N-[2-amino-1-methyl-2-oxo-ethyl]-4-fluoro-anilino)thiazole-5-carbonyl]phenoxy]acetyl]amino]benzamide] | 51.7 nM |
| Cc1cccc(N(c2nc(N)c(C(=O)c3ccccc3)s2)C(C)C(N)=O)c1 (single isomer, unassigned) [Example 76.1, 2-(N-(4-amino-5-benzoyl-thiazol-2-yl)-3-methyl-anilino)propanamide] | 114 nM |
| CC(C(N)=O)N(c1ccc(F)cc1)c1nc(N)c(C(=O)c2ccc(-n3ccnc3)cc2)s1 (racemic) [Example 20, rac-2-(N-[4-amino-5-(4-imidazol-1-ylbenzoyl)thiazol-2-yl]-4-fluoro-anilino)propanamide] | 161 nM |
| CC(C(N)=O)N(c1ccc(F)c(F)c1)c1nc(N)c(C(=O)c2ccc(OC(F)F)nc2)s1 (single isomer, unassigned) [Example 163.2, 2-(N-[4-amino-5-[6-(difluoromethoxy)pyridine-3-carbonyl]thiazol-2-yl]-3,4-difluoro-anilino)propanamide] | 1090 nM |
| COc1ccc(N(c2nc(N)c(C(=O)c3ccc(OC(F)F)cc3)s2)C(C)C(N)=O)cc1 (racemic) [Example 174, rac-2-(N-[4-amino-5-[4-(difluoromethoxy)benzoyl]thiazol-2-yl]-4-methoxy-anilino)propanamide] | 51 nM |
| CC(C(N)=O)N(c1ccc(F)cc1)c1nc(N)c(C(=O)c2ccc(N3CCC(C)(C#N)CC3)nc2)s1 (single isomer, unassigned; enantiomer 2) [Example 285.2, 2-(N-[4-amino-5-[6-(4-cyano-4-methyl-1-piperidyl)pyridine-3-carbonyl]thiazol-2-yl]-4-fluoro-anilino)propanamide (enantiomer 2)] | 432 nM |
| CC(C(N)=O)N(c1ccc(F)cc1)c1nc(N)c(C(=O)c2ccc([N+](=O)[O-])cc2)s1 (racemic) [Example 175, rac-2-(N-[4-amino-5-(4-nitrobenzoyl)thiazol-2-yl]-4-fluoro-anilino)propanamide] | 20 nM |
| CC(C(N)=O)N(c1ccc(Cl)c(F)c1)c1nc(N)c(C(=O)c2ccc(O)cc2)s1 (single isomer, unassigned; enantiomer 2) [Example 290, 2-(N-[4-amino-5-(4-hydroxybenzoyl)thiazol-2-yl]-4-chloro-3-fluoro-anilino)propanamide (enantiomer 2)] | 936 nM |
| CC(C(N)=O)N(c1nc(N)c(C(=O)c2ccccc2)s1)c1ccc(OC(F)(F)F)cc1Cl (racemic) [Example 240, rac-2-[N-(4-amino-5-benzoyl-thiazol-2-yl)-2-chloro-4-(trifluoromethoxy)anilino]propanamide] | 1330 nM |
| CC(NC(=O)COc1ccc(C(=O)c2sc(N(c3ccc(F)cc3)C(C)C(N)=O)nc2N)cc1)c1ccccc1 (racemic) [Example 125, 2-(N-[4-amino-5-[4-[2-oxo-2-(1-phenylethylamino)ethoxy]benzoyl]thiazol-2-yl]-4-fluoro-anilino)propanamide] | 44 nM |
| COc1ccc(C(=O)c2sc(N(c3ccc(OC(F)(F)F)nc3)C(C)C(N)=O)nc2N)cc1 (racemic) [Example 248, rac-2-[[4-amino-5-(4-methoxybenzoyl)thiazol-2-yl]-[6-(trifluoromethoxy)-3-pyridyl]amino]propanamide] | 136 nM |
| CC(Oc1ccc(C(=O)c2sc(N(c3ccccc3)C(C)C(N)=O)nc2N)cc1)C(N)=O (single isomer, unassigned) [Example 45.1, 2-(N-[4-amino-5-[4-[2-amino-1-methyl-2-oxo-ethoxy]benzoyl]thiazol-2-yl]anilino)propanamide] | 201 nM |
| CC(C(N)=O)N(c1ccc(OC(F)(F)F)c(Cl)c1)c1nc(N)c(C(=O)c2ccc(OC(F)F)cc2)s1 (racemic) [Example 224, rac-2-[N-[4-amino-5-[4-(difluoromethoxy)benzoyl]thiazol-2-yl]-3-chloro-4-(trifluoromethoxy)anilino]propanamide] | 45 nM |
| CC(C(N)=O)N(c1ccc(F)cc1)c1nc(N)c(C(=O)c2ccc(C(=O)NC3CCCCC3)cc2)s1 (racemic) [Example 260, rac-4-[4-amino-2-(N-(2-amino-1-methyl-2-oxo-ethyl)-4-fluoro-anilino)thiazole-5-carbonyl]-N-cyclohexyl-benzamide] | 29 nM |
